Data on eleven compounds can be found in ChEMBL document CHEMBL1201862, “PubChem BioAssay data set” (2004).

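In this assay, cells in 96-well plates receive the compound at five concentrations for 48 hours. Endpoints are linearly interpolated between the surrounding concentrations. The concentration for 50% growth inhibition is given as GI50.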 Activity calls are given as the source filed them. Rule as the data show it: active = GI50 up to about 1.1 µM and inactive = higher.

Test systems include IGROV-1; Malme-3M; Hs-578T; DU-145; SR; A498; MDA-MB-231; MDA-MB-435; SW-620; HCT-116; SNB-19; HCC 2998; OVCAR-4; MCF7; LOX IMVI; UO-31; SK-MEL-5; CCRF-CEM; CAKI-1.
Common to all, as to assay: NCI anticancer screen, dose series, 48 h

With `CC(=O)Nc1ccc(Nc2cc(O)nc(O)n2)cc1`, the GI50 in the test with IGROV-1, with Malme-3M, with Hs-578T, in the test on DU-145, in the test with SR and in the test with A498 was > 100 µM (inactive) each time. In addition, the GI50 in the test with MDA-MB-231, in the test with MDA-MB-435, in the test with SW-620, with HCT-116, in the test on SNB-19 and with HCC 2998 was > 100 µM (inactive) each time. Also, the GI50 in the test on OVCAR-4, in the test with MCF7, with LOX IMVI, with UO-31 and in the test with SK-MEL-5 was > 100 µM (inactive) in each case.
Regarding `Cc1ccc([N+](=O)[O-])c2c(NCCC[N+](C)(C)[O-])c3ccccc3nc12`, the GI50 is 1.19 µM (inactive) with IGROV-1; 1.22 µM (inactive) in the test on Malme-3M; 3.24 µM (inactive) in the test with Hs-578T; 1.43 µM (inactive) in the test on DU-145; 0.218 µM (active) in the test on SR; 1.89 µM (inactive) in the test on A498. In addition, the GI50 in the test on MDA-MB-231 is 1.86 µM (inactive); in the test on MDA-MB-435 it was 1.77 µM (inactive); with SW-620 it was 2.18 µM (inactive); in the test on HCT-116, 1.52 µM (inactive); with SNB-19 it was 1.17 µM (inactive); in the test with HCC 2998, 0.841 µM (active). Also, the GI50 with OVCAR-4 was 2.02 µM (inactive); in the test with MCF7, 0.401 µM (active); with LOX IMVI it was 2.04 µM (inactive); in the test on UO-31 it was 16.1 µM (inactive); in the test with CCRF-CEM, 2.07 µM (inactive); in the test with CAKI-1 it was 21 µM (inactive). Also, in the test on SK-MEL-5, the GI50 was 0.998 µM (active).
In the case of `OCc1ccn2c1[C@@H](O)CC2`, the GI50 with IGROV-1, in the test on Malme-3M, in the test on Hs-578T, in the test on DU-145, in the test with SR and in the test on A498 was > 100 µM (inactive) in each case. Further, the GI50 with MDA-MB-231, with MDA-MB-435, in the test on SW-620, with HCT-116, with SNB-19 and with HCC 2998 was > 100 µM (inactive) each time. The GI50 with OVCAR-4, in the test with MCF7, in the test with LOX IMVI, in the test with CCRF-CEM, in the test on CAKI-1 and in the test with SK-MEL-5 was > 100 µM (inactive) in each case.
With `CO/N=C(/C(=O)OC)c1ccccc1COc1ccccc1C(F)(F)F`, the GI50 with IGROV-1 is 20.7 µM (inactive); in the test with Malme-3M it was 11.6 µM (inactive); in the test with Hs-578T, 47.3 µM (inactive); with DU-145, 37 µM (inactive); in the test with SR, 8.32 µM (inactive); with A498 it was 39.7 µM (inactive). For the same compound, the GI50 is 80.9 µM (inactive) with MDA-MB-231; 24.4 µM (inactive) in the test on MDA-MB-435; 25.1 µM (inactive) in the test on HCT-116; 98.2 µM (inactive) in the test on SNB-19; 27.9 µM (inactive) in the test with HCC 2998; 7.21 µM (inactive) with OVCAR-4. Also, the GI50 in the test with MCF7 is 39.4 µM (inactive); in the test with UO-31, 39.1 µM (inactive); in the test with CCRF-CEM, 13 µM (inactive); in the test on CAKI-1 it was 20.1 µM (inactive); in the test with SK-MEL-5, 6.22 µM (inactive).
As for `CC(C)OC(=O)NNc1cccc(Cl)c1`, the GI50 in the test on Malme-3M, with Hs-578T, with DU-145, with SR, with A498 and with MDA-MB-231 was > 100 µM (inactive) throughout. Further, the GI50 in the test on MDA-MB-435, in the test with SW-620, with HCT-116, with SNB-19, in the test on HCC 2998 and with MCF7 was > 100 µM (inactive) each time. Also, the GI50 is 65.8 µM (inactive) with LOX IMVI; > 100 µM (inactive) with UO-31; > 100 µM (inactive) in the test on CCRF-CEM; 61.7 µM (inactive) in the test on CAKI-1; > 100 µM (inactive) with SK-MEL-5.
In the case of `O=C(c1ccccc1)c1ccc(-n2c3ccccc3c3ccc4c(c32)C(=O)C=CC4=O)cc1`, the GI50 is 16 µM (inactive) with IGROV-1; 23.4 µM (inactive) in the test with Hs-578T; 10.5 µM (inactive) with DU-145; 3.15 µM (inactive) with SR; 12.2 µM (inactive) in the test with A498; 8.24 µM (inactive) in the test on MDA-MB-231. The GI50 with MDA-MB-435 was 6.01 µM (inactive); in the test with SW-620, 3.88 µM (inactive); with HCT-116, 5.2 µM (inactive); with SNB-19, 20.9 µM (inactive); in the test with HCC 2998, 11.2 µM (inactive); in the test on OVCAR-4 it was 16.3 µM (inactive). The GI50 was 3.21 µM (inactive) with MCF7; 3.41 µM (inactive) in the test on LOX IMVI; 2.74 µM (inactive) in the test on UO-31; 1.11 µM (active) in the test on CCRF-CEM; 2.07 µM (inactive) in the test with CAKI-1; 18.7 µM (inactive) with SK-MEL-5.
As to `Nc1c(S(=O)(=O)O)cc(Nc2cccc(S(=O)(=O)/C=C/S(=O)(=O)O)c2)c2c1C(=O)c1ccccc1C2=O`, the GI50 in the test on IGROV-1 is > 100 µM (inactive); with Malme-3M, > 100 µM (inactive); with Hs-578T, 73.3 µM (inactive); with DU-145 it was > 100 µM (inactive); with SR, > 100 µM (inactive); in the test on A498, > 100 µM (inactive). The GI50 with MDA-MB-231, in the test on MDA-MB-435, with SW-620, in the test with HCT-116, in the test with SNB-19 and in the test on HCC 2998 was > 100 µM (inactive) each time. The GI50 in the test on OVCAR-4, in the test with MCF7, in the test with LOX IMVI, in the test with CCRF-CEM, with CAKI-1 and in the test on SK-MEL-5 was > 100 µM (inactive) in each case.
For `COc1cc2c3cc1Oc1c(OC)c(OC)cc4c1C(=NCC4)Cc1ccc(cc1)Oc1cc(ccc1O)C[C@H]3N(C)CC2`, the GI50 with IGROV-1 is 25.4 µM (inactive); in the test with Malme-3M, 0.601 µM (active); in the test on Hs-578T, 17.6 µM (inactive); in the test on DU-145 it was 25.4 µM (inactive); in the test with SR it was 5.74 µM (inactive); in the test on A498, 22 µM (inactive). In addition, the GI50 is 12.9 µM (inactive) in the test with MDA-MB-231; 18.5 µM (inactive) with MDA-MB-435; 17.3 µM (inactive) in the test with SW-620; 12 µM (inactive) with HCT-116; 23.4 µM (inactive) in the test on SNB-19; 13.4 µM (inactive) with HCC 2998. Moreover, the GI50 with OVCAR-4 is 16.1 µM (inactive); in the test with MCF7, 25.8 µM (inactive); in the test with LOX IMVI, 12.6 µM (inactive); in the test on CCRF-CEM it was 30 µM (inactive); in the test with CAKI-1 it was 20.6 µM (inactive); in the test on SK-MEL-5 it was 12.2 µM (inactive).
As to `NNC(=O)c1cccc2c1Oc1ccccc1S2`, the GI50 was > 100 µM (inactive) in the test with IGROV-1; 31.6 µM (inactive) in the test with Hs-578T; 69 µM (inactive) with DU-145; > 100 µM (inactive) in the test on SR; 18.2 µM (inactive) in the test on A498; > 100 µM (inactive) with MDA-MB-231. Moreover, the GI50 in the test with MDA-MB-435, in the test with SW-620, with HCT-116, in the test with SNB-19, with HCC 2998 and in the test on OVCAR-4 was > 100 µM (inactive) in each case. Moreover, the GI50 is > 100 µM (inactive) in the test on MCF7; 88.3 µM (inactive) in the test with LOX IMVI; > 100 µM (inactive) in the test with UO-31; 63.1 µM (inactive) in the test with CCRF-CEM; > 100 µM (inactive) in the test with CAKI-1; > 100 µM (inactive) in the test on SK-MEL-5.
As to `Cc1ccc2nc3sc(=O)sc3nc2c1` [CHINOMETHIONAT], the GI50 in the test on IGROV-1 is 16.1 µM (inactive); with Hs-578T, 25 µM (inactive); with DU-145, > 100 µM (inactive); in the test with SR, 21.1 µM (inactive); in the test on A498, 7.48 µM (inactive); in the test on MDA-MB-231, 17.3 µM (inactive). Also, the GI50 is 16.1 µM (inactive) in the test with MDA-MB-435; 24.1 µM (inactive) in the test with SW-620; 17.2 µM (inactive) in the test on HCT-116; 18.2 µM (inactive) with SNB-19; 16.2 µM (inactive) in the test on HCC 2998; 13.7 µM (inactive) in the test on OVCAR-4. In addition, the GI50 in the test with MCF7 is 17.6 µM (inactive); in the test on LOX IMVI it was 15 µM (inactive); in the test on UO-31, 15.4 µM (inactive); in the test on CCRF-CEM, 31.5 µM (inactive); in the test on CAKI-1, 16.4 µM (inactive); in the test with SK-MEL-5, 15.6 µM (inactive).
As to `C=CC[C@H](O)[C@@](NC(=O)OCc1ccccc1)(Sc1ccc(C)cc1)C(F)(F)F`, the GI50 was 10.1 µM (inactive) in the test on IGROV-1; 56.8 µM (inactive) in the test on Malme-3M; 24 µM (inactive) in the test with Hs-578T; 35.7 µM (inactive) in the test with DU-145; 20.1 µM (inactive) with SR; 65.3 µM (inactive) with A498. Moreover, the GI50 was 24.8 µM (inactive) with MDA-MB-231; 24.1 µM (inactive) in the test with MDA-MB-435; 32.1 µM (inactive) with SW-620; 20.5 µM (inactive) in the test on HCT-116; 32.6 µM (inactive) with SNB-19; > 100 µM (inactive) with HCC 2998. In addition, the GI50 in the test with OVCAR-4 is 28.2 µM (inactive); in the test on MCF7, 23.5 µM (inactive); with LOX IMVI, 4.44 µM (inactive); in the test with UO-31, 17.9 µM (inactive); in the test on CAKI-1, 24.7 µM (inactive); with SK-MEL-5 it was 26.9 µM (inactive).
